The structures appear in SMILES notation. Like-named read-outs stand apart in the source and are kept apart here.

Details of series [1]: method as in PMID 23582014. Conditions: male rats exposed acutely to PCB11 vapors; cited from earlier work.
On the set-up of series [2]: method as in PMID 24275706. Conditions: cited from earlier work.
Series [3] in a line: PCB52 and monohydroxylated metabolite tissue levels by GC-MS/MS after 4 h nose-only inhalation. In kind it is in vivo, Sprague–Dawley rats. Conditions: Sprague-Dawley, rat, inhaled. As for the experimental part:
PCB52 vapor for the animal exposure was generated using a published protocol.[12] Briefly, 450 g of 3 mm diameter glass beads were added to a solution of 1.5 g of PCB52 in dichloromethane. The glass beads were then coated with PCB52 by evaporating dichloromethane in a water bath at 29 °C using a rotary evaporator (Buchi Rotavapor R-200, New Castle, DE) under reduced pressure. For the animal exposures, high-efficiency particulate air (HEPA)-filtered laboratory air was passed through the PCB52-coated glass beads at a flow rate of 12 L/min to expose animals to PCB52 vapor in a nose-only exposure apparatus (Figure 1A). The flask of PCB52-coated beads and mixing chamber were kept at 25.0 °C using a precision water bath to facilitate the volatilization of PCB52. The PCB52-laden air was passed through a mixing chamber and distributed to the nose-only inhalation apparatus at a flow rate of 4 L/min per tower (n = 3) and a sampling cartridge filled with 10 g of Amberlite XAD-2 polymeric absorbent resin (Sigma-Aldrich, St. Louis, MO) at a flow rate of 2 L/min. The specified flow rates were generated using flow meter-regulated pumps. The XAD-2 cartridge was used to capture PCB52 vapor to characterize the exposure atmosphere. A sham exposure group was exposed in parallel to HEPA-filtered clean air in an identical nose-only exposure system in an adjacent lab with no supplied PCB52.
The Institutional Animal Care and Use Committee of the University of Iowa approved all of the animal protocols. Animals were housed in a temperature- and humidity-controlled room (21 °C, 55% relative humidity) with a 12 h light/dark cycle in an Association for the Assessment and Accreditation of Laboratory Animal Care (AAALAC) accredited animal facility. Animals were provided with food (sterile Teklad 5% stock diet, Harlan, Madison, WI) and water ad libitum throughout the study. Thirty-six male and female Sprague–Dawley rats (7 weeks of age; Charles River, Wilmington, MA) were allowed to acclimate to the animal facility for 8 days after arrival. Prior to exposure, rats (227 ± 27 and 197 ± 13 g, male and female, respectively) were randomly assigned to the exposure groups (n = 6 per group) using a random number generated (Excel, version 2307). Animals were simultaneously exposed for 4 h to a low or high concentration of PCB52-laden per sex) or filtered lab air (Figure 1A). Exposure duration was limited to 4 h along with scheduled training days (30 min at 55 days of age and 2 h at 56 days of age) to acclimate animals and minimize stress. […] Animal exposure occurred for 4 h at 57 days of age. Rats are considered adolescents at this age.[38] Serum was collected immediately after the animals were removed from the nose-only apparatus by cardiac puncture under isoflurane anesthesia. Rats were perfused with saline, and organs were excised and stored at −80 °C. Body and organ weights, including brain, lungs, and thymus, were not altered by PCB52 inhalation regardless of sex or exposure (Tables S2 and S3).
PCB52 and its hydroxylated metabolites were extracted from tissues, serum, and cecum and intestinal content using a published protocol;[40],[41] see the Supporting Information. Briefly, PCB52 and its metabolites were extracted from homogenates by liquid–liquid extraction and cleaned by solid-phase extraction with acidified silica gel. PCB52 and metabolites were quantified in the multiple reaction monitoring setting (MRM) on an Agilent 7890 A GC system equipped with an Agilent 7000 Triple Quad and Agilent 7693 autosampler (Agilent Technologies, Santa Clara, CA); see the Supporting Information.
PCB52 and metabolite levels, adjusted for tissue wet weight, are reported as the mean ± standard deviation. Differences in PCB52 and metabolite levels from the GC-MS/MS analysis were analyzed with the Tobit regression model because some measurements are below the detection limit. […]

On the set-up of series [4]: method as in PMID 36804509. To be noted: 3 weeks after intraperitoneal administration of PCB52 100 mg/kg bw; cited from earlier work.

On to `Clc1cccc(-c2cccc(Cl)c2)c1` [PCB11, 3,3′-dichlorobiphenyl], for which the “rank order of tissue levels” value in series [1] is recorded as “lung > serum > liver”. The “time to radioactivity in the systemic circulation” value in series [2] (intratracheally instilled 14C-labeled PCB11) is reported as at most 12 min. In series [2] (postexposure), the “time of highest levels of extractable PCB11 metabolites in the jejunum and ileum” value was “approximately 100 min”.
With `Oc1cc(Cl)c(-c2cc(Cl)ccc2Cl)cc1Cl` [4-OH-PCB52, 2,2′,5,5′-Tetrachlorobiphenyl-4-ol], the concentration at 4 h in series [3] (both sexes, brain, irrespective of sex and exposure group, GC-MS/MS, read-out: level in the brain (below the detection limit)) is under 0.16 ng/g; in series [3] (female, adipose, female, high dose, mean, read-out: PCB or metabolite detected level, Adipose), 0.2 ng/g; in series [3] (female, cecum, female, high dose, mean, read-out: PCB or metabolite detected level, Cecum), 3 ng/g; in series [3] (female, cecum, female, low dose, mean, read-out: PCB or metabolite detected level, Cecum), 2 ng/g; in series [3] (female, intestinal content, female, high dose, mean, read-out: PCB or metabolite detected level, Intestinal content), 5 ng/g; in series [3] (female, intestinal content, female, low dose, mean, read-out: PCB or metabolite detected level, Intestinal content), 4 ng/g. Besides, the concentration at 4 h in series [3] (female, liver, female, high dose, mean, read-out: PCB or metabolite detected level, Liver) was found to be 0.2 ng/g; in series [3] (female, liver, female, low dose, mean, read-out: PCB or metabolite detected level, Liver), 0.2 ng/g; in series [3] (female, lung, female, high dose, mean, read-out: PCB or metabolite detected level, Lung), 0.2 ng/g; in series [3] (female, lung, female, low dose, mean, read-out: PCB or metabolite detected level, Lung), 0.1 ng/g; in series [3] (female, serum, female, high dose, mean, read-out: PCB or metabolite detected level, Serum) it was 0.1 ng/g; in series [3] (female, serum, female, low dose, mean, read-out: PCB or metabolite detected level, Serum) it was 0.4 ng/g. For the same molecule, the concentration at 4 h in series [3] (male, adipose, male, high dose, mean, read-out: PCB or metabolite detected level, Adipose) was 0.2 ng/g; in series [3] (male, cecum, male, high dose, mean, read-out: PCB or metabolite detected level, Cecum), 2 ng/g; in series [3] (male, cecum, male, low dose, mean, read-out: PCB or metabolite detected level, Cecum) it was 1 ng/g; in series [3] (male, intestinal content, male, high dose, mean, read-out: PCB or metabolite detected level, Intestinal content), 0.4 ng/g; in series [3] (male, liver, male, high dose, mean, read-out: PCB or metabolite detected level, Liver) it was 0.3 ng/g; in series [3] (male, liver, male, low dose, mean, read-out: PCB or metabolite detected level, Liver), 0.1 ng/g. For the same molecule, the concentration at 4 h stood at 0.2 ng/g in series [3] (male, lung, male, high dose, mean, read-out: PCB or metabolite detected level, Lung); 0.1 ng/g in series [3] (male, lung, male, low dose, mean, read-out: PCB or metabolite detected level, Lung); 0.4 ng/g in series [3] (male, serum, male, high dose, mean, read-out: PCB or metabolite detected level, Serum); 0.4 ng/g in series [3] (male, serum, male, low dose, mean, read-out: PCB or metabolite detected level, Serum). Further, the “detection frequency in the rat brain” value in series [4] is recorded as 20%.

Source of the values: publication PMC11008251, “Distribution of 2,2′,5,5′-Tetrachlorobiphenyl (PCB52) Metabolites in Adolescent Rats after Acute Nose-Only Inhalation Exposure” (Environmental Science & Technology, 2024).
